Key:
[1] = In vivo metabolism (radio-RP-HPLC and radio-MLC of plasma, brain, urine); design: species or system CD-1 mice; settings: 30 min p.i.
Experimental: The radiotracer [^18F]BA3 (~30 MBq in 200 µL isotonic saline) was administered via the tail vein in non-anesthetized female CD-1 mice (n = 2). At 30 min p.i., the animals were anesthetized by isoflurane inhalation and blood was sampled from the retro-orbital plexus. After cervical dislocation, urine was obtained and the brain was isolated. Plasma was obtained by centrifugation of the blood sample (8000× g, 2 min), and the brain was homogenized in ~1 mL distilled water on ice using a glass/PTFE Potter Homogenizer (Potter S Homogenizer, B. Braun Melsungen AG, Melsungen, Germany).
Protein precipitation was performed by addition of an ice-cold MeCN/H2O mixture (9:1, v/v) in a ratio of 4:1 (v/v) of organic solvent to plasma or brain homogenate, respectively. The samples were vortexed for 3 min, equilibrated on ice for 3 min, and centrifuged for 10 min at 10,000 rpm. The precipitates were washed with 100 μL of the solvent mixture and subjected to the same procedure. The combined supernatants were concentrated at 70 °C under argon flow to a final volume of approximately 100 μL and analysed by analytical radio-RP-HPLC with a gradient system (see quality control section). The peak corresponding to the radiotracer in the radio-chromatogram was identified by co-injecting the sample with the reference compound BA3. To determine the percentage of activity in the supernatants compared with total activity, aliquots of each step as well as the precipitates were quantified by an automated gamma counter (1480 WIZARD, Perkin Elmer, Turku, Finland). For plasma and brain samples recoveries of 97% and 95%, respectively, of total activity were obtained.
For the preparation of the MLC samples, 20 µL of mouse plasma was dissolved in 200 µL of an aqueous 200 mM sodium dodecyl sulfate (SDSaq) solution and injected into the MLC system. For brain samples, 400 µL brain homogenate was dissolved in 800 µL 200 mM SDSaq, heated for 5 min at 70 °C and centrifuged for 5 min at 10,000 rpm. The MLC system was built up as earlier described. Separations were performed by using a Reprosil-Pur C18-AQ column (250 × 4.6 mm, 10 µm + 10 mm pre-column) and an eluent mixture of EtOH/100 mM SDSaq/25 mM (NH4)2HPO4 in gradient mode (0–10 min at 100% 100 mM SDSaq, 10–15 min up to 10% EtOH, 15–20 min at 10% EtOH, 20–21 min up to 100% 100 mM SDSaq; 21–30 min at 100% 100 mM SDSaq) at a flow rate of 1.0 mL/min.

human recombinant HDAC1 = molecular target: T1, human recombinant HDAC1 (Homo sapiens, UniProt Q13547); assay: Inhibition assay HDAC1 (fluorogenic substrate ZMAL); type: biochemical; settings: 60 min preincubation at 25 °C
T1 construct: purchased BPS Bioscience Inc. 50051
Experimental: In vitro inhibitory activities against HDAC1−3 and HDAC6 were measured as previously published with minor modifications. […] Subsequently, 50 µL trypsin solution (0.4 mg/mL trypsin in buffer: 50 mM Tris−HCl, pH = 8.0, 100 mM NaCl) was added, followed by additional 30 min of incubation at 37 °C. […] All compounds were tested at least twice in duplicates.

[2] = Dynamic PET/MR scan, brain uptake, baseline; type: in vivo
Experimental: (§1) For the time of the experiments, female CD-1 mice (n = 6; 8–15 weeks; 29–43 g) were kept in a dedicated climatic chamber with free access to water and food under a 12:12 h dark:light cycle at a constant temperature (24 °C). The animals were anaesthetized (Anaesthesia Unit U-410, agntho’s, Lidingö, Sweden) with isoflurane (2.0%, 300 mL/min) delivered in a 60% oxygen/40% air mixture (Gas Blender 100 Series, MCQ instruments, Rome, Italy) and their body temperature maintained at 37 °C with a thermal bed system. For baseline studies [^18F]BA3 was injected into the tail vein (n = 2; 6.0 ± 0.6 MBq in 150 µL isotonic saline; 9.2 ± 0.7 nmol/kg; Am: 21 GBq/μmol, EOS) followed by a dynamic 60 min PET/MR scan (Mediso nanoScan®, Budapest, Hungary). Permeability-glycoprotein efflux transporter studies consisted in pre-treatment via i.v. injection of cyclosporine A (50 mg/kg in NaCl/DMSO/kolliphor, 7:1:2, v/v; n = 2) or of vehicle (NaCl/DMSO/kolliphor, 7:1:2, v/v; n = 2) 30 min prior to [^18F]BA3 (6.0 ± 0.9 MBq; 4.9 ± 0.7 nmol/kg; Am: 32–37 GBq/μmol, EOS). Each PET image was corrected for random coincidences, dead time, scatter and attenuation (AC), based on a whole body (WB) MR scan. The reconstruction parameters for the list mode data were 3D-ordered subset expectation maximization (OSEM), 4 iterations, 6 subsets, energy window: 400–600 keV, coincidence mode: 1–5, ring difference: 81. The mice were positioned prone in a special mouse bed (heated up to 37 °C), with the head fixed to a mouth piece for the anaesthetic gas supply with isoflurane in 40% air and 60% oxygen. The PET data were collected by a continuous WB scan during the entire investigation. Following the 60 min PET scan a T1 weighted WB gradient echo sequence (TR/TE: 20/6.4 ms, NEX: 1, FA: 25, FOV: 64 × 64 mm, Matrix: 128 × 128, STh: 0.5 mm) was performed for AC and anatomical orientation. […]. The respective brain regions were identified using the mouse brain atlas template Ma-Benveniste-Mirrione-FDG. The activity data are expressed as mean SUV of the overall ROI.

[3] = Whole-body biodistribution derived from PET imaging; type: in vivo
Experimental: as §1

[4] = Lipophilicity logD7.4, shake-flask method n-octanol/PBS; type: physicochemical; settings: n-octanol/PBS pH 7.4, room temperature, n = 8
Experimental: Radiochemical stability of [^18F]BA3 was investigated in 0.9% NaCl solution (containing 10% EtOH) and in n-octanol at room temperature for 2 h. Samples were analysed by radio-RP-HPLC (see quality control). The LogD7.4 value of [^18F]BA3 was experimentally determined in n-octanol/phosphate-buffered saline (PBS, pH = 7.4) at room temperature by the shake-flask method as described previously. Briefly, small tracer amounts (~800 kBq) were added to a mixture of 3 mL n-octanol and 3 mL PBS. After shaking for 20 min, the samples were centrifuged (10,000 rpm, 5 min) and 1 mL aliquots of the organic as well as aqueous layer were taken and measured in a gamma counter (1480 WIZARD, Perkin Elmer, Turku, Finland). Another 1 mL aliquot of the organic layer was mixed with 2 mL n-octanol and 3 mL PBS and subjected to the same procedure until constant partition coefficient values had been obtained. The measurement was performed twice in quadruplicate.

[5] = radio-RP-HPLC, individual values of 2 mice

T1 sequence (Q13547 whole entry): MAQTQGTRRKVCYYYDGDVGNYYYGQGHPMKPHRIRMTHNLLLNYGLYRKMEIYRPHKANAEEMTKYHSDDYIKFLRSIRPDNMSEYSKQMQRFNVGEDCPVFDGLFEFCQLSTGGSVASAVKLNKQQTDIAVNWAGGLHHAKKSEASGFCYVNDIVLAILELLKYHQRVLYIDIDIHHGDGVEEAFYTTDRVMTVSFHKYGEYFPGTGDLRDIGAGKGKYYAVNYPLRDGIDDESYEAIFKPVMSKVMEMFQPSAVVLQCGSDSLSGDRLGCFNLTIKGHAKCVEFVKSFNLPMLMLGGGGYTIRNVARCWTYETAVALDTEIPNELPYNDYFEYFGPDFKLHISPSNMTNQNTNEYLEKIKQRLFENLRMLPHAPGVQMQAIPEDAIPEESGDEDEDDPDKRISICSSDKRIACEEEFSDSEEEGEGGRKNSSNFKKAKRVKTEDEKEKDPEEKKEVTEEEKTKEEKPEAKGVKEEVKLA

CC([18F])C(=O)NCc1ccc(C(=O)Nc2cc(-c3ccsc3)ccc2N)cc1 (stereo not drawn) [[^18F]BA3]
intact radiotracer, share of total activity in brain ([1]; radio-MLC, mean, n = 2): ~24%
intact radiotracer, share of total activity in plasma ([1]; radio-MLC, mean, n = 2): about 6%
intact radiotracer in urine ([1]; radio-RP-HPLC and radio-MLC): not detected
Brain [%] of activity [1, 5]: 20 / 23
Plasma [%] of activity [1, 5]: 3 / 7
share of total activity in brain ([1]; radio-RP-HPLC, mean, n = 2): 21%
share of total activity in plasma ([1]; radio-RP-HPLC, mean, n = 2): about 5%
IC50 (human recombinant HDAC1): 4.8 ± 0.6 nM
brain peak standardized uptake value ([2]; at 0.8 min, i.v.): ~ 0.16 SUV
brain uptake plateau ([2]; at 15 min, i.v.): ~ 0.22 SUV
brain uptake after washout ([2]; at 60 min after i.v. administration): ~ 0.16 SUV
activity in blood circulation SUV5 min ([3]; blood, 5 min): 1.47 SUV
activity in blood circulation SUV60 min ([3]; blood, 60 min): 1.10 SUV
initial uptake SUV5 min ([3]; spleen, kidney, muscle, liver and small intestines, 5 min): < 4 SUV
logD [4]: 1.75 ± 0.16
